Data: article PMC9254247, “Dual-sensitive antibacterial peptide nanoparticles prevent dental caries” (Theranostics, 2022)
No end group written: not given here.

How the values were obtained:
[1] = tested on: S. mutans UA159 biofilm; test: S. mutans biofilm treatment in vitro on glass slides; type: cell-based, Streptococcus mutans; conditions: 55 μM; 10 min every 12 h, 3 times; confocal (Figure S10A-B)
Description: a concentration of 1×10^8 CFU/mL. pHly-1 NPs and CHX were diluted in BHI containing 1% sucrose to reach a series of concentration s and added to 96-well microplates (180 μL). Then, 2 μL S.mutans suspensions were seeded into 96-well microplates in the presence of different concentrations of pHly -1 NPs and CHX and the plate was incubated at 37 °C. After 24 h, the culture supernatants were gently discarded, and each well was rinsed three times with PBS (pH 7.0) to remove unattached bacteria. The bacterial viability was measured by methyl thiazol tetrazolium (MTT) assay. […] The MTT assay was performed to determined the minimum biofilm inhibition concentration (MBIC 50) by using the Microplate Reader at OD 490 nm 7. […]
S.mutans biofilm treatment in vitro, characterization and quantitative analysis.
Biofilms were formed on circular glass slides in a 24-well plate. […] B iofilms formed on glass slides were used for SEM, fluorescent staining and bacterial quantitative analyses. […]
For quantitative analysis9,10, after the treatment was finished, biofilms were removed from the glass slides and homogenized by water bath sonication followe d by probe sonication at an output of 7 W for 30 s (Branson Sonifier 150, Branson Ultrasonics). […] The effect of pHly- 1 NPs or CHX on biofilms was measured by counting the CFU of alive bacteria with agar plating after incubation for 48 h at 37 °C. […]

[2] = tested on: pepsin; test: Degradation by pepsin (RP-HPLC); type: in vitro ADME; conditions: peptide 100 µg/mL, pepsin 10 µg/mL, Tris buffer pH 4.0, 37 °C, 5 min, MALDI-TOF MS
Description: Figure 7 The biosafety of pHly-1 NPs to normal oral and gastric organoids. […] (B and C) The representative gastric organoid images (B) and oral organoid images (C) after 500 µM pHly-1 NPs or CHX treatment. (D and E) the viability of gastric (D) and oral (E) organoids after treatment with pHly-1 NPs or CHX was assessed by CellTiter-Blue cell viability assay. Scale bar, 100 µm. Each experiment was repeated 3 times. (F) RP-HPLC analysis of pHly-1 NPs degradation by pepsin. pHly-1 NPs (100 µg/mL) was incubated with pepsin (10 µg/mL) in Tris buffer (pH 4.0) at 37 °C for 5 min and submitted to RP-HPLC analysis. The HPLC fractions were analyzed by MALDI-TOF MS. The black arrow represents the intact peptide of pHly-1 NPs and the molecular weight is 2865.1 Da (Figure S14). After 5 min of pepsin hydrolysis, the molecular weight of the mainly peptide fragment is 1650.6 Da (Figure S14). All of the data are represented as average ± s.d.

Row | Compound | suppression effect on pre-formed biofilm [1] | degradation by pepsin [2]
1 | [H]/N=C(\N/C(=N/[H])NCCCCCCNC(=N)NC(=N)Nc1ccc(Cl)cc1)Nc1ccc(Cl)cc1 [CHX, chlorhexidine] | almost negligible | 
2 | KIWFHAMHIIAHFIAHQHLHQHL-NH2 [pHly-1 NPs] |  | rapidly degraded
